# Measurements published in patent publication US20210267948A1, “TREATMENT OF CANCER” (CITY OF HOPE, priority 2017, published 2021).
# How the values were obtained:
# [1] = system: HCC1937+BRCA1; experiment: Microarray gene ontology enrichment, HCC1937+BRCA1; assay type: cell-based, human; conditions: genes downregulated, HCC1937 + BRCA1-COH29 vs HCC1937 + BRCA1
# Experimental: (§1) FDR values were calculated using the method of Benjamini and Hochberg (28) from the distribution of ANOVA with Linear Contrastp-values. Gene ontology (GO) (29) enrichment analysis was performed within PARTEK® GENOMICS SUITE™, and GO categories were defined significant with a Fisher Exact test p-value<0.05.
# (§2) To identify the mechanism through which COH29 preferentially lyses BRCA1-mutant human cancer cells, genome-wide microarray analysis was performed using the AFFYMETRIX® GENECHIP® microarray platform to identify the gene expression profiles and pathways affected by COH29 treatment. The RNA expression profile of COH29 treated HCC1937 breast cancer cells lacking BRCA1 was compared with that of COH29 treated HCC1937+BRCA1 cells. […] For example, DNA ligation involved in DNA repair is more strongly enriched in HCC1937 cells which may relate to the phenotypic effect.
# [2] = system: HCC1937; experiment: Microarray gene ontology enrichment, HCC1937; assay type: cell-based, human; conditions: genes downregulated, HCC1937-COH29 vs HCC1937
# Experimental: as §1, §2
# [3] = system: wild-type zebrafish embryos; experiment: Zebrafish genotoxicity assay; assay type: in vivo, Danio rerio; conditions: embryos treated 1 to 7 dpf, COH29 0-100 μM
# Experimental: The PARP1 activity was determined using the PARP1 Chemiluminescent Assay Kit (BPS Bioscience, San Diego) according to the manufacturer's protocol. Briefly, the ribosylation reaction was carried out with activated DNA in PARP assay buffer using test inhibitor, positive control, substrate control and blank reactions, for 1 hour at 25° C. Detection was by streptavidin-HRP with chemiluminescent substrate A and B read in a luminometer. NZebrafish (Danio rerio) were obtained from zebrafish Core facility of Taipei Medical University and maintained at 28° C. on a 14 h light/10 h dark cycle. Embryos were incubated at 28° C. and different developmental stages were determined as described (25). Wild-type embryos were treated with different concentrations of HU (0, 5, 10, 20, 50 mM) or COH29 (0, 10, 20, 50, 100 μM) at 20 hpf to evaluate the mutagenic effect. Fifteen embryos were treated per well condition. […] Embryos were observed using an Olympus IX70-FLA inverted fluorescence microscope. Images were taken using SPOT digital camera system (Diagnostic Instruments, Sterling Heights, Mich., USA) and assembled with Image) software (26).
# To assess the genotoxicity of COH29, wild-type zebrafish embryos were treated from 1 to 7 dpf (day post-fertilization) with a range of doses of COH29 (0-100 μM) and compared to embryos similarly treated with HU (0-50 mM) which is known to cause developmental defects.
# [4] = system: multiple human cancer cell lines; experiment: In vitro activity in multiple human cancer cell lines; assay type: cell-based; conditions: in most cases
# [5] = system: EJ5 cells (NHEJ pathway); experiment: NHEJ repair GFP reporter (EJ5-GFP); assay type: cell-based; conditions: 24 h
# Experimental: The EJ2 cells were generated to evaluate Alt-NHEJ through monitoring the fluorescence intensity of GFP, and EJ5 cells were used to determine NJEJ, as described previously (23). Cells were seeded into 6-well plate and treated with COH29 or cisplatin at different concentration for 24 hours. The cells were then trypsinized, washed, and analyzed by flow cytometry.
# [6] = system: MCF7 cells containing wild-type p53; experiment: DNA damage checkpoint Western blot, MCF-7; assay type: cell-based, human
# Experimental: FIG. 6. COH29 treatment activates DNA damage checkpoint. The effect of COH29 treatment on DNA damage checkpoint proteins in human breast cancer cells expressing wt p53 (MCF-7) or defective for p53 (MCF-7p53−/−), and in triple-negative breast cancer cells (MDA-MB-468) assessed by Western Blot.
# For subcellular fractionation, cells were trypsinized and washed with cold PBS solution twice. After centrifugation at 1,200 g for 5 min, cells were incubated in buffer (50 mM HEPES, pH 7.5, 150 mM NaCl, 1 mM EDTA) containing 0.2% NONIDET™ P-40 (NP-40), supplemented with protease inhibitors (5 μg/ml each of pepstatin, leupeptin, and aprotinin) and phosphatase inhibitors on ice for 5 min. Following centrifugation at 1,000 g for 5 min, the supernatant was collected (i.e., cytoplasmic fraction) and pellets were washed with the same buffer twice. The washed samples were extracted for 40 min on ice with fractionation buffer containing 0.5% NP-40 for nuclear fraction. All the samples were sonicated and clarified by centrifugation at 16,000 g for 15 min. Protein concentrations of all fractions were determined with Bio-Rad Protein Assay (Bio-Rad Laboratories, Hercules, Calif.). Immunoblotting was performed as described previously (21,22). […] The immunoblots were visualized on film with the West-Q chemi-luminescence kit (GenDEPOT, Barker, Tex.).
# [7] = GLP toxicity study in dogs; assay type: in vivo; conditions: for Toxicity: Beagles, top dose 42 mg/kg
# Source text: Toxicity studies in rats and dogs at doses equivalent to 10× that dose have not shown toxicity at 10 or 21 days.
compound,measurement,setting,value
"O=C(Nc1nc(-c2ccc(O)c(O)c2)c(-c2ccccc2)s1)c1ccc(O)c(O)c1 [COH29, N-(4-(3,4-dihydroxyphenyl)-5-phenylthiazol-2-yl)-3,4-dihydroxybenzamide]",Genes (n): DNA ligation involved in DNA repair,[1],3
same,Genes (n): DNA repair,[1],44
same,Genes (n): DSB repair,[1],14
same,Genes (n): DSB repair via HR,[1],9
same,Genes (n): DSB repair via NHEJ,[1],3
same,Genes (n): DNA ligation involved in DNA repair,[2],3
same,Genes (n): DNA repair,[2],17
same,Genes (n): DSB repair,[2],7
same,Genes (n): DSB repair via HR,[2],5
same,Genes (n): DSB repair via NHEJ,[2],2
same,viability of embryos,[3],no developmental defects (FIG. 5C) or decrease in viability
same,developmental defects,[3]; HU 0-50 mM,no developmental defects
same,IC50,[4],< 10 µM
same,NHEJ repair efficiency,[5],little effect
same,"DNA damage checkpoint (phosphorylation of ATM, CHK1, CHK2)",[6],activated the DNA damage checkpoint
same,γ-H2AX level,[6],increase
same,Toxicity,[7]; 10 days,none
same,Toxicity,[7]; 21 days,none
same,NOAEL,"[7]; beagle, dog, in vivo",84 mg/kg/day
